In patent US11883418B2, “Compound TSYI-ZAC for inhibiting dengue virus infection and medicinal use thereof” (Syi Biotechnology Co., Ltd., priority 2022, dated 2024):
Where “and” joins values, the source holds several entries; their conditions need not be identical. Equal values may be shown once.

Experiments:
IL-6 = IL-6 expression in infected supernatant of DENV-infected Meg-01 cells, enzyme immunoassay; type: cell-based, human; settings: after dengue virus infection, extract at IC10 concentration
Procedure: (§1) 2×10^4 Meg-01 cells are lysed in a RPMI culture medium containing 10% fetal bovine serum for in vitro infection with dengue virus. The infection condition is 1 MOI, a total volume of virus sap and cell sap is 2 ml, and the selected virus is dengue virus type 2 (DENV-2), strain 16681. The infection mixture is cultured in a 37° C. incubator for 2 hours, and the tube is shaken once every 30 minutes to increase a chance of virus contacting the cells. After 2 hours, centrifuge (600 rpm, 6 minutes) with a centrifuge to remove the virus that is not in contact with the cells, and re-lyse the cells with an appropriate amount of a cell culture medium, and then divide the cells into a cell culture medium (2 ml) or into a cell culture medium additional added with the Antrodia camphorata extract ZAC and the Antrodia camphorata extract YS-1, the centrifuge tube is finally placed in a 37° C. incubator, and the infection supernatant is collected at specific infection time points (time points: 2 hours, and 1, 2, 3, 5, 7 days after infection). The infection mixture is taken out at the specific time points, centrifuged with a centrifuge (600 rpm, 6 minutes), the infection supernatant is separated, and a viral titer is assayed by viral plaque assay and an expression of cytokines is assayed by enzyme combined with immunosorbent assay. […]

Meg-01 cells = experiment: Cell viability assay (WST-1) of Meg-01 cells; type: cell-based, human; settings: for IC10 (concentration that produces 10% inhibition of cell viability): Meg-01 cells, co-culture 7 days, WST-1, OD 440 nm; for effect on cell viability: 400 μg/mL; for effect on cell viability / toxicity on Meg-01 cells (cell viability): 7 days; for toxicity on Meg-01 cells (cell viability): low concentrations 25 μg/mL, 50 μg/mL
Procedure: Meg-01 cell strains (CRL2021, ATCC, human myelo-megakaryocyte leukemia cell strains) are cultured in a RPMI medium with 10% fetal bovine serum, when a cell density reaches 80-90%, the cell sap can be withdrawn into a centrifuge tube, after being centrifuged in a centrifuge (600 rpm, 6 minutes), then remove the supernatant, and re-lyse the centrifuged cells with an appropriate amount of a culture medium for subculture or subsequent experiments.
1×10^3 Meg-01 cells are lysed in 100 μL of 10% fetal bovine serum in a RPMI culture medium and seeded into a 96-well U-shaped plate. Different concentrations of the Antrodia camphorata extract ZAC and the Antrodia camphorata extract YS-1 are added to the cells for co-culture at 37° C. for 7 days, while the cells added with dimethyl sulfoxide (DMSO) are used as an experimental control group.
Please refer to FIG. 1. FIG. 1 is a graph of viability of Meg-01 cells after adding the Antrodia camphorata extract according to one embodiment of the invention. The Meg-01 cells are co-cultured with different concentrations of the Antrodia camphorata extract ZAC or the Antrodia camphorata extract YS-1 respectively, and the group added with DMSO is used as an experimental control group. After the cells are co-cultured with the Antrodia camphorata extract for 7 days, WST-1 assay reagent is added to the cells and OD 440 nm value is collected to assay a toxicity of the drug on the cells, the cell group without addition of the Antrodia camphorata extract is regarded as an experimental control group, and the cell groups added with different concentrations of the Antrodia camphorata extract are regarded as experimental groups.

IL-8 = IL-8 expression in infected supernatant of DENV-infected Meg-01 cells, enzyme immunoassay; type: cell-based, human; settings: after dengue virus infection, extract at IC10 concentration
Procedure: as §1

[1] = system: dengue virus type 2 (DENV-2), strain 16681; experiment: Dengue virus infection of Meg-01 cells, viral titer by plaque assay; type: cell-based; settings: for dengue viral titer versus infected control: p value<0.0001
Procedure: 2×10^4 Meg-01 cells are lysed in a RPMI culture medium containing 10% fetal bovine serum for in vitro infection with dengue virus. The infection condition is 1 MOI, a total volume of virus sap and cell sap is 2 ml, and the selected virus is dengue virus type 2 (DENV-2), strain 16681. The infection mixture is cultured in a 37° C. incubator for 2 hours, and the tube is shaken once every 30 minutes to increase a chance of virus contacting the cells. After 2 hours, centrifuge (600 rpm, 6 minutes) with a centrifuge to remove the virus that is not in contact with the cells, and re-lyse the cells with an appropriate amount of a cell culture medium, and then divide the cells into a cell culture medium (2 ml) or into a cell culture medium additional added with the Antrodia camphorata extract ZAC and the Antrodia camphorata extract YS-1, the centrifuge tube is finally placed in a 37° C. incubator, and the infection supernatant is collected at specific infection time points (time points: 2 hours, and 1, 2, 3, 5, 7 days after infection). The infection mixture is taken out at the specific time points, centrifuged with a centrifuge (600 rpm, 6 minutes), the infection supernatant is separated, and a viral titer is assayed by viral plaque assay and an expression of cytokines is assayed by enzyme combined with immunosorbent assay.
7×10^5/well […] kidney epithelial cells (BHK cells) are lysed in 1.5 ml of a DMEM culture medium containing 5% fetal bovine serum and seeded on a 6-well plate. The virus solution to be tested will be serially diluted first. The preparation method is to add 100 μL of unknown virus solution to 900 μL of a DMEM culture medium containing 2% fetal bovine serum to achieve a 10-fold dilution. After the cells to be seeded are attached onto the plate, remove the culture medium, add 400 μL of the virus solution to be tested, and culture in a 37° C. incubator for 2 hours. The plate needs to be shaken once every 15 minutes so that the infection solution can evenly cover the cells. After two hours, the infection solution is removed, methylcellulose is added to limit a range of virus movement, and the plate is placed back into the 37° C. incubator to culture for 7 days. […] Finally, the dye is washed off with clean water, and a number of plaques formed is counted to calculate the viral titer. […]
2 hours after the […] cells are infected by dengue virus, centrifuge to remove excessive virus, and the cells are re-lysed in a cell culture medium containing the Antrodia camphorata extract ZAC (91.68 μg/mL) or the Antrodia camphorata extract YS-1 (176.51 μg/mL), respectively. […] Plaque assay will be used on the collected infected supernatant (n=3) to quantify a viral titer.

IFN-α = IFN-α expression in infected supernatant of DENV-infected Meg-01 cells, enzyme immunoassay; type: cell-based, human; settings: 5th and 7th days after infection, extract at IC10 concentration; day 5 P value 0.0021
Procedure: as §1

COc1cc(C)c(OC)c2c1OCO2 [YS-1, 4,7-dimethoxy-5-methyl-1,3-benzodioxole]
expression of cellular inflammatory factor IL-6 (IL-6): effectively reducing an expression
IC10 (concentration that produces 10% inhibition of cell viability) (Meg-01 cells): 176.512 µg/mL and 176.51 µg/mL
effect on cell viability (Meg-01 cells; higher concentrations 200 μg/mL): slight effect on cell viability
toxicity on Meg-01 cells (cell viability) (Meg-01 cells; 100 μg/mL): generally not toxic
expression of cellular inflammatory factor IL-8 (IL-8): effectively reducing an expression
dengue viral titer versus infected control ([1]; 176.51 μg/mL added after infection): significantly reducing the viral titer
inhibitory effect on dengue virus (viral titer) ([1]; high dose 176.51 μg/mL compared with low dose 25 μg/mL): better inhibitory effect on dengue virus
inhibitory effect on dengue virus (viral titer) ([1]; low dose 25 μg/mL): inhibitory effect on dengue virus

C=C(CC[C@@H](C)[C@H]1CC[C@H]2C3=C(C(=O)[C@H](O)[C@]12C)[C@@]1(C)CC[C@@H](O)[C@@H](C)[C@@H]1CC3=O)C(C)C(=O)O (stereo partly drawn) [ZAC, Zhankuic acid C]
expression of cellular inflammatory factor IL-6 (IL-6): effectively reducing an expression
amount of secretion of IFN-α versus infected control (IFN-α): significantly higher
IC10 (concentration that produces 10% inhibition of cell viability) (Meg-01 cells): 91.675 µg/mL and 91.68 µg/mL
effect on cell viability (Meg-01 cells; higher concentrations 100 μg/mL, 200 μg/mL): slight effect on cell viability
toxicity on Meg-01 cells (cell viability) (Meg-01 cells): generally has no toxicity
expression of cellular inflammatory factor IL-8 (IL-8): effectively reducing an expression
dengue viral titer versus infected control ([1]; 91.68 μg/mL added 2 hours after infection, late stages of infection (5th to 7th days)): decreases significantly
